ChEMBL document CHEMBL3132769, “Fragment growing to retain or alter the selectivity of anchored kinase hinge-binding fragments” (Medchemcomm, 2014)

What was measured:
[1] = species: Homo sapiens; experiment: Inhibition of human full length PKA expressed in baculovirus assessed as substrate phosphorylation using fluorescence-labelled peptides as substrate at 70 uM after 90 mins by microfluidic peptide phosphorylation assay
[2] = molecular target: Calcium/calmodulin-dependent protein kinase type II subunit beta (Homo sapiens) (UniProt Q13554); experiment: Inhibition of human CAMK2 beta catalytic domain expressed in baculovirus assessed as substrate phosphorylation using fluorescence-labelled peptides as substrate at 70 uM after 90 mins by microfluidic peptide phosphorylation assay
[3] = molecular target: T1, Serine/threonine-protein kinase DCLK2 (Homo sapiens) (UniProt Q8N568); experiment: Inhibition of human full length DCAMKL2 expressed in baculovirus assessed as substrate phosphorylation using fluorescence-labelled peptides as substrate at 70 uM after 90 mins by microfluidic peptide phosphorylation assay
T1 sequence (whole entry): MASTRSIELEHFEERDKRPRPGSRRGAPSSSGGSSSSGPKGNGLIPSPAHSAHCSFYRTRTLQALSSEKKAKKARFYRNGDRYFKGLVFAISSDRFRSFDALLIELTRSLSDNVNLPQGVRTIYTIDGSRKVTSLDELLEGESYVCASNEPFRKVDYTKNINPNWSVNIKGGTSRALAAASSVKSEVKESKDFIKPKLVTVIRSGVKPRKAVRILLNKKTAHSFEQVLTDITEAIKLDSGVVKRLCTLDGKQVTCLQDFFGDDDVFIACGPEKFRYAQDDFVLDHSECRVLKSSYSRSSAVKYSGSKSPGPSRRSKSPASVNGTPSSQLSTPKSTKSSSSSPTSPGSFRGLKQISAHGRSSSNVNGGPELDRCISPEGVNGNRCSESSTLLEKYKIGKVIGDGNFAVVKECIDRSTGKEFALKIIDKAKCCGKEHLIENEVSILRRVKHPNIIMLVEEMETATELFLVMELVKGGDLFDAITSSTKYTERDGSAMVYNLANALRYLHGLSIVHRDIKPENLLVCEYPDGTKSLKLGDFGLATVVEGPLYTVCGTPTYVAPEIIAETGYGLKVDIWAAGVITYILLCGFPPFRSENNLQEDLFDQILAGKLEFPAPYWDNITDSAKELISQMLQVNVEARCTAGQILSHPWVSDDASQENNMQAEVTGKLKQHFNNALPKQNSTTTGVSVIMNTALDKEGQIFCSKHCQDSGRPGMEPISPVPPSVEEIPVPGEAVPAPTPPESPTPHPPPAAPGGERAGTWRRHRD

[4] = molecular target: Serine/threonine-protein kinase PAK 2 (Homo sapiens) (UniProt Q13177); experiment: Inhibition of human truncated PAK2 expressed in Escherichia coli cell assessed as substrate phosphorylation using fluorescence-labelled peptides as substrate at 9 uM after 90 mins by microfluidic peptide phosphorylation assay
[5] = molecular target: MAP kinase p38 (Homo sapiens) (UniProt O15264+Q15759+Q16539+P53778); experiment: Inhibition of human full length p38 beta2 expressed in Escherichia coli cell assessed as substrate phosphorylation using fluorescence-labelled peptides as substrate at 9 uM after 90 mins by microfluidic peptide phosphorylation assay
[6] = molecular target: T2, Aurora kinase A (Homo sapiens) (UniProt O14965); experiment: Inhibition of human full length AurA expressed in baculovirus assessed as substrate phosphorylation using fluorescence-labelled peptides as substrate at 9 uM after 90 mins by microfluidic peptide phosphorylation assay
T2 sequence (whole entry): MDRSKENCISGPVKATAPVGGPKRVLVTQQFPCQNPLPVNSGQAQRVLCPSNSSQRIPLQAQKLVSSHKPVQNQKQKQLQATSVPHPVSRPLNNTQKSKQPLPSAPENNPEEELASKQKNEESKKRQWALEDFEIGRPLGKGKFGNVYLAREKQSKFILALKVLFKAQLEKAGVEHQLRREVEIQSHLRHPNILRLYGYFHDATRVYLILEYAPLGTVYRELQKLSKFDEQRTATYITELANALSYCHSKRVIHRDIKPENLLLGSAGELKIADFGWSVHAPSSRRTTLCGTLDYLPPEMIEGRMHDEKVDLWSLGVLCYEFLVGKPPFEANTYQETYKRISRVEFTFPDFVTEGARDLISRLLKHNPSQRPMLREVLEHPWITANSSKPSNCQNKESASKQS

[7] = molecular target: Ribosomal protein S6 kinase alpha-4 (Homo sapiens) (UniProt O75676); experiment: Inhibition of human full length MSK2 expressed in baculovirus assessed as substrate phosphorylation using fluorescence-labelled peptides as substrate at 1000 uM after 90 mins by microfluidic peptide phosphorylation assay
[8] = molecular target: T3, Protein kinase C epsilon type (Homo sapiens) (UniProt Q02156); experiment: Inhibition of human truncated PKC epsilon expressed in baculovirus assessed as substrate phosphorylation using fluorescence-labelled peptides as substrate at 2 uM after 90 mins by microfluidic peptide phosphorylation assay
T3 sequence (whole entry): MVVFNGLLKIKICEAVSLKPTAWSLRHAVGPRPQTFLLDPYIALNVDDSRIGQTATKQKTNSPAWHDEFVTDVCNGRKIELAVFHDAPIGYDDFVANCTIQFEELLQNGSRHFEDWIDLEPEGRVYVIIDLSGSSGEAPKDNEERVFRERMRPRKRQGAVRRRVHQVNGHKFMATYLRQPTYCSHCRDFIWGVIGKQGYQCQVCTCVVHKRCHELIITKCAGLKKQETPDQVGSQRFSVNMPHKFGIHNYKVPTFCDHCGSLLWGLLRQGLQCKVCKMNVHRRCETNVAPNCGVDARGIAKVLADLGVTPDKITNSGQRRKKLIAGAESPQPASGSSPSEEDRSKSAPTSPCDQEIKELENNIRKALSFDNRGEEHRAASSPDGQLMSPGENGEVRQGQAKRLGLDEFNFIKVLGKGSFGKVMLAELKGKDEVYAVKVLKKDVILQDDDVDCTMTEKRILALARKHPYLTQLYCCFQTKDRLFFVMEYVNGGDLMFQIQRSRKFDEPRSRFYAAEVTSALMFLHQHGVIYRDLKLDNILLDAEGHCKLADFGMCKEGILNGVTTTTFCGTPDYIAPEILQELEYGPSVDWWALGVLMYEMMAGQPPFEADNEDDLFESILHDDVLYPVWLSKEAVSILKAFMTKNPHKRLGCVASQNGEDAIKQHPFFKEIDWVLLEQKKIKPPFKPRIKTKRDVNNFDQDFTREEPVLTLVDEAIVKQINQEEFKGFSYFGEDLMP

[9] = molecular target: Ribosomal protein S6 kinase alpha-4 (Homo sapiens) (UniProt O75676); experiment: Inhibition of human full length MSK2 expressed in baculovirus assessed as substrate phosphorylation using fluorescence-labelled peptides as substrate at 0.1 uM after 90 mins by microfluidic peptide phosphorylation assay

Sequence of Ribosomal protein S6 kinase alpha-4 (Homo sapiens) (O75676 whole entry, looked up, the tested form may be a part): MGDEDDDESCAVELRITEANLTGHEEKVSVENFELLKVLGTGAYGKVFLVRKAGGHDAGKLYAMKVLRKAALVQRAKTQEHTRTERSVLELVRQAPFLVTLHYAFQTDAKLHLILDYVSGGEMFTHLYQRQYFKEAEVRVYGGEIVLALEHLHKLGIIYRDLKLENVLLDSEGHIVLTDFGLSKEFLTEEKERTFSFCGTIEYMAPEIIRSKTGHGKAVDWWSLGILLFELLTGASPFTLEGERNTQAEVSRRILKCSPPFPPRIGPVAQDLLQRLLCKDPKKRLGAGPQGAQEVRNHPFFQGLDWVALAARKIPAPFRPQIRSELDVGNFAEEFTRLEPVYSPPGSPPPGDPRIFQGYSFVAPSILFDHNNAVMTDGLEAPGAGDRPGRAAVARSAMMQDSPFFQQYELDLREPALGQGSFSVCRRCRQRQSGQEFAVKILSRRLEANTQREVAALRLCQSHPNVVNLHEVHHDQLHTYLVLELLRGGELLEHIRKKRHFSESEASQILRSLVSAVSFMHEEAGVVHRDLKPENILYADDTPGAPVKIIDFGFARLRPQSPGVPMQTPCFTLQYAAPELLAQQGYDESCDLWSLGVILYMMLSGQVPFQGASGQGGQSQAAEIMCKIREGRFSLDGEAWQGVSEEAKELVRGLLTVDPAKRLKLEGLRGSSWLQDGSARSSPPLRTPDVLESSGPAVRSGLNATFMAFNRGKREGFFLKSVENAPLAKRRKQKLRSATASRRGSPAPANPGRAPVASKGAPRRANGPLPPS
Sequence of Calcium/calmodulin-dependent protein kinase type II subunit beta (Homo sapiens) (Q13554 whole entry, the tested form may be a part): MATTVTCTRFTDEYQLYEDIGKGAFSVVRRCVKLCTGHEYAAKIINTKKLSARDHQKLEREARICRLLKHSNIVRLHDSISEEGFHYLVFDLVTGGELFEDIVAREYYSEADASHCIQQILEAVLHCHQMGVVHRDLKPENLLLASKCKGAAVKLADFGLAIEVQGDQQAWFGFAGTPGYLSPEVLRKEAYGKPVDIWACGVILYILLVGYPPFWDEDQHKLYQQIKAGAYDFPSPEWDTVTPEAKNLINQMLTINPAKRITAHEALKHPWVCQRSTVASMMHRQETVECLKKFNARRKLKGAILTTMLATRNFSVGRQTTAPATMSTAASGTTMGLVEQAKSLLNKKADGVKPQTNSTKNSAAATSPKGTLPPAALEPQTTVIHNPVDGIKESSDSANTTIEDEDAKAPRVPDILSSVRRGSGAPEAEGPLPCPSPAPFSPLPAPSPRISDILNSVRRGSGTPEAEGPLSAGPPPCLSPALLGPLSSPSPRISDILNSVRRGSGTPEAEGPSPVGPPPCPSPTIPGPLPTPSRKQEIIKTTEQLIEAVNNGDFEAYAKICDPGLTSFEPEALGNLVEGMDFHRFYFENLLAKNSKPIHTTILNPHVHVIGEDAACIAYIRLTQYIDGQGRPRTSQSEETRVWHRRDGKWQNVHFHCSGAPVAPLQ
Sequence of Serine/threonine-protein kinase PAK 2 (Homo sapiens) (Q13177 whole entry, the tested form may be a part): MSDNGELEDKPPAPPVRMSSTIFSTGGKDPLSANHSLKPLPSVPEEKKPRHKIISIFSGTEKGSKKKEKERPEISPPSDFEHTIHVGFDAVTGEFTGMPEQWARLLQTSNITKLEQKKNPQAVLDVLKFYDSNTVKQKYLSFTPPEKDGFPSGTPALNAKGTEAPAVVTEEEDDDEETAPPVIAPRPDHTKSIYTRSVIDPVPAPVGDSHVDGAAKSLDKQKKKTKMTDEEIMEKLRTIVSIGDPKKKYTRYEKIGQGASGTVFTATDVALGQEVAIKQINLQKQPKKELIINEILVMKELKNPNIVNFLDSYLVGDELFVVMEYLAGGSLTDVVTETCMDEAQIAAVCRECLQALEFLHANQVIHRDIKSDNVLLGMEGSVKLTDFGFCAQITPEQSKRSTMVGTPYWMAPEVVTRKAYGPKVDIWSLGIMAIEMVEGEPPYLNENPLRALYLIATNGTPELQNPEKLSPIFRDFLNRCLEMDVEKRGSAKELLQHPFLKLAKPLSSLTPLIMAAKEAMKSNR

SMILES: CNCc1ccc(-c2ncnc3[nH]cnc23)cc1
- inhibition [1]: 96%
- inhibition [2]: 6.5%
- inhibition [3]: 20.5%

SMILES: NCC1CN(c2ncnc3[nH]c4cnccc4c23)CCO1 (centres undefined)
- inhibition [4]: 3%
- inhibition [5]: 0%
- inhibition [6]: 23.5%

SMILES: c1cnc2[nH]ccc2c1
- inhibition [7]: 81%

SMILES: NC1CCN(c2ncnc3[nH]ccc23)CC1
- inhibition [8]: 2.5%

SMILES: C[C@H](CN(C)C)Oc1nc(Nc2cc3cccc(Cl)c3cn2)cnc1C#N
- inhibition [9]: 13.5%
